# Assay results as given in patent US20160264616A1, “THERAPEUTIC COMPOUNDS AND METHODS” (priority 2015, published 2016).
# “Also recorded” adds a separate entry of the source. Where two headings read alike, the source gives them in different places.
# Experiments:
# [1] = target: T1, Gαo:RGS17 protein:protein interaction (Homo sapiens, UniProt Q9UGC6); test: AlphaScreen Gαo:RGS17 protein:protein interaction assay (HTS and dose-response); type: binding; details: for inhibition of the interaction of RGS17 with Gαo: AlphaScreen dose-response, n=3 in triplicate; for inhibition at 100 µM: read-out: inhibition of the AlphaScreen assay
# T1 construct: This is the same RGS17 construct used in the high throughput screening campaign that is fully active despite the N-terminal truncation; made in house; host or cells: BL21 (DE3) E. coli for Gαo
# T1 sequence (Q9UGC6 84-200 limits assumed): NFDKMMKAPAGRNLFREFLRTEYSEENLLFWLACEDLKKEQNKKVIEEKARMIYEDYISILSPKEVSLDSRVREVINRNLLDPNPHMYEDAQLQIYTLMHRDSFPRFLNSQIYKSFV
# Description: The primary biochemical screen was designed to identify compounds that function as inhibitors of the Gαo:RGS17 ppi. This was accomplished by miniaturizing our previously published HTS paradigm in a 1536-well format (17). […] We interrogated the 2320 compound containing MicroSource […] Diversity library (Discovery Systems, Inc. Gaylordsville, Conn.) (FIG. 3).
# In total, 2,320 compounds from the MicroSource […] chemical library were screened at a concentration of 40 μM. Two 1536-well plates containing 1,280 compounds and 128 wells of DMSO controls were used. RGS17-anti-GST and Gαo-biotin-streptavidin beads were prepared as previously described. In brief, 100 μg (20 μL) of beads were coupled to 20 ng (10 nM) of each binding partner (Gαo:RGS17) and incubated for 30 min on ice. Then, 4.5 μL of RGS17-anti-GST beads were added using a FlexDrop IV (PerkinElmer, Waltham, Mass.) and incubated for 10 min with compound while the Gαo-biotin-streptavidin beads were incubated with AMF. After incubation, 4.5 μL of the Gαo-biotin-streptavidin bead/protein mixture was added to compound containing wells and incubated on ice for 1.25 hours and read at room temperature using the EnVision plate reader with monochromators.
# Experiments were carried out similarly to the high-throughput AlphaScreen assay except this was completed using Corning 384-well white flat bottom plates and the final total volume was 60 μL, with 20 µL of Gαo-biotin-streptavidin and RGS17-anti-GST beads at a final concentration of 10 nM. Then, 20 μL of compounds in a half log dilution series to yield a final range from 1 nM to 100 μM was added to RGS17-anti-GST beads and incubated for 10 min in the dark on ice. Next, 20 μL of Gαo-biotin-streptavidin beads were then added in the presence of AMF and GDP. Negative controls were determined in the absence of AMF and compound. Maximum binding was determined in the absence of compounds but in the presence of AMF and GDP.
# [2] = target: T2, RGS17 (Homo sapiens, UniProt Q9UGC6); test: MALDI-TOF mass spectrometry for covalent adducts; details: two-fold molar excess of compound, one hour
# T2 construct: This is the same RGS17 construct used in the high throughput screening campaign that is fully active despite the N-terminal truncation; made in house
# T2 sequence (Q9UGC6 84-200 limits assumed): T1 sequence (Q9UGC6 84-200 limits assumed)
# Description: Matrix-assisted laser desorption ionization time of flight (MALDI-TOF) mass spectrometry was employed to evaluate if lead compounds were capable of covalently modifying RGS17's RGS homology domain. Covalent adducts on RGS17 were not detected with any compounds using two-fold molar excess of compound when incubated for one hour with RGS17ΔN (FIG. 8). For all samples, the only species that were observed were singly and doubly charged unmodified, intact protein with mass-to-charge ratios of […], respectively.
# Following treatment with compound, buffer was exchanged for 25 mM ammonium bicarbonate using an Amicon Ultra 10K 0.5 mL centrifugal filtration device (Millipore, Billerica, Mass.). Intact protein molecular weight was then assessed by matrix-assisted laser desorption/ionization-time of flight (MALDI-TOF) mass spectrometry. This was accomplished using a Bruker ultrafleXtreme in the linear TOF mode, employing 384-well Anchor chip targets (Billerica, Mass.). MALDI matrix reagents sinapinic acid and alpha-Cyano-4-hydroxycinnamic acid, purchased from Bruker, were reconstituted to 5 mg/ml in a 1:1 solution of acetonitrile and aqueous 0.1% formic acid (Billerica, Mass.). Samples in ammonium bicarbonate were diluted to 5 μM in aqueous 0.1% formic acid and introduced to target as a 1:1 solution of protein sample to MALDI matrix buffer. After crystal drying, samples were desalted on the target plate using aqueous 0.1% TFA. The laser was configured to emit pulses at 200 Hz at an optimal wavelength of 355 nm, and input energy of 500 μJ/pulse was attenuated 80-90%. Mass scale was calibrated using horse heart myoglobin, and 2000 shots were acquired per spectra.
# [3] = tested on: RGS17FL:Gαo interaction in HEK293T cells; test: RGS localization assay, GFP-RGS17FL co-transfected with human Gαo in HEK293T cells; type: cell-based; details: 100 μM, 0-10 min
# Description: HEK293T cells co-transfected with GFP-RGS17FL and human Gαo were treated with UI-5, UI-1590 and […] to determine if the compounds could disrupt the RGS17:Gαo interaction that could drive RGS17 to the membrane. […] To test this hypothesis, we constructed a GFP-RGS17 fusion protein with an N-terminal truncation, removing the cysteine-rich motif. […] As a negative control, we tested a known RGS4 inhibitor (CCG-50014) in this assay against RGS17ΔN (21). […] Finally, to ensure the localization was not due to the GFP tag, pAcGFP vector was co-transfected into HEK293T cells with hGαo. […] Cross-sectional fluorescence intensity analysis was used to quantify the intensity of signal at a cross section of the cell. Average signal at the membrane and in the cytoplasm were calculated and change in signal intensity was assessed between time zero and time final. […] Additionally, the control condition of CCG-50014 was subject to the same analyses as the lead compound.
# Twenty four (24) hours prior to plating, assay plates were coated with 30 μl poly-D-lysine per well. Human Embryonic Kidney 293T cells (HEK293T) were plated in to 96 well tissue culture treated glass bottom view plates (Perkin Elmer, Part No. 6005430) at a density of 25K cells per well. […] Images were analyzed using NIH Image J software and Graphpad Prism 6. […]
Structure (SMILES),inhibition of the interaction of RGS17 with Gαo [1],inhibition at 100 µM [1],covalent adducts on RGS17 [2],delocalization of full length RGS17FL [3],"inhibition at 100 µM ([1]; 100 μM compound, from dose-response experiments)"
C[n+]1cc2c3c(ccc2c2ccc4cc5c(cc4c21)OCO5)OCO3 [UI-5],dose dependent manner,> 25%,did not form adducts,remained at the membrane; also recorded: does not diffuse back in to the cytoplasm,–
CC1=C(O)C(=O)C=C2C1=CC=C1[C@@]2(C)CC[C@@]2(C)[C@@H]3C[C@](C)(C(=O)O)CC[C@]3(C)CC[C@]12C [UI-1590],dose dependent manner,> 25%,did not form adducts,–,–
CC(C)=CCC[C@]1(C)C=Cc2c(O)c3c(c(CC=C(C)C)c2O1)O[C@]12C(=C[C@@H]4C[C@H]1C(C)(C)O[C@@]2(C/C=C(/C)C(=O)O)C4=O)C3=O [UI-1907],dose dependent manner,> 25%,–,–,–
"O=c1c(-c2cc(O)c(O)c(O)c2)coc2cc(O)c(O)c(O)c12 [UI-1956, 5,6,7-trihydroxy-3-(3,4,5-trihydroxyphenyl)-4H-chromen-4-one]",dose dependent manner,–,did not form adducts,–,> 25%
